Experiment [1] concerns confluent BAEC. Briefly: Total β-galactosidase expression measured fluorometrically in cell lysates. Particulars: for enhancement of β-galactosidase expression / gene transfer: lipofection; for increase in total β-galactosidase expression over transfection with plasmid alone: plasmid precomplexed with peptide, lipofectamine. In kind it is cell-based, bovine. The procedure:
(§1) Bovine aortic endothelial cells (BAEC) (passage<10) are grown to confluence, passed to a 6-well culture dish at a split ratio of 1:3, and then grown to confluence as described by Subramanian, A. and Diamond, S. L. Tissue Engineering 3, 39-52, 1997. Growth medium is Dulbecco's modified Eagle's medium (DMEM) containing 10% heat inactivated newborn calf serum, 0.30 mg/ml of glutamine, 150 U/ml penicillin and 0.15 mg/ml streptomycin (GIBCO, Grand Island, N.Y.). Hela cells (Hela S3 ATCC No. CCL 2.2) are grown in DMEM media (Gibco BRL) supplemented with 10% fetal calf serum as described by Ranjan, V. and Diamond, S. L. Biochem. Biophys. Res. Comm. 196, 79, 1993.
(§2) Cationic liposomes (Lipofectamine Reagent, Gibco-BRL), containing a 3:1 by weight mixture of polycationic lipid 2,3-dioleoyloxy-N-[2(sperminecarboxamido)ethyl]-N,N-dimethyl-1 propanaminium trifluoroacetate (DOSPA) and the neutral lipid dioleoyl phosphatidylethanolamine (DOPE) was used in all transfections in accordance with procedures described by Subramanian, A. and Diamond, S. L. Tissue Engineering 3, 39-52, 1997. Pure liposome (10 μl) diluted to 100 μl are added to the DNA/scaffold complex, incubated for 45 minutes. Then 0.8 ml of OPTIMEM media is added to this mixture which is then overlaid on the cells. The cells are incubated for 2 hours at 37 ? C. After two hours, the mixture is aspirated, 4% serum in OPTIMEM media is added, and the cells are allowed to grow for 48 hours. The cells are then fixed and assayed for ? -gal activity. During the transfections, the cells are continuously monitored for cell viability and adhesion.
To assay for ? gal to measure % transfection, cells are stained with XGAL as described by Subramanian, A. and Diamond, S. L. Tissue Engineering 3, 39-52, 1997. The percent of cells stained per field of view is counted using a Zeiss 125M inverted microscope. The count is averaged from at least 4 fields of view for each transfected monolayer. To measure ? -gal expression quantitatively, cell lysates are prepared and tested for ? -gal activity against the fluorogenic substrate, fluorescein di- ? -D-galactopyranoside (FDG, F-1179 Molecular Probes) which is not fluorescent until cleaved to fluorescein monogalactoside and then to fluorescein (excitation/emission: 494/520 nM). For flow cytometry, the trypsinized cell suspension is supplemented with serum, pelleted (100 g) and resuspended in staining medium to approximately 10^7 cells/ml. A 100 μL cell suspension is maintained at 37 ? C and 100 μl of 2 mM FDG maintained at 37 ? C is then added to the cell suspension, mixed rapidly and incubated at 37 ? C for 1 minute. The FDG loading is stopped at the end of 1 minute by adding 1.8 mL of ice-cold staining medium containing 1.5 μM Propidium Iodide and 1 mM PETG. The cells are kept on ice prior to flow cytometer analysis using a Becton Dickinson FACScan system. Unstained BAEC cells allow compensation for autofluorescence. The histogram showing fluorescence/cell to the number of cells is used to calculate the % transfection.

Experiment [2] has as its system confluent BAEC. Put plainly: Flow cytometry (FDG) of confluent BAEC lipofected with pCMVβgal ± peptides. In kind it is cell-based, bovine. To be noted: 1 μg plasmid. On the procedure:
as §1
as §2, with “The cells are incubated for 2 hours at 37 ? C. After two hours, the mixture is aspirated, 4% serum in OPTIMEM media is added, and the cells are allowed to grow for 48 hours. The cells are then fixed and assayed for ? -gal activity.” left out, “adhesion. […]” for “adhesion.”

A further experiment relates to plasmid. Put plainly: Ethidium bromide fluorescence release assay of plasmid condensation. To be noted: electrostatic interactions. In kind it is binding. An excerpt: Several different cationic scaffolds that are rich in amine suitable for conjugation reactions and which mediate electrostatic complexation or condensation with plasmid are used. These scaffolds can include: SV40 T antigen NLS (SVT=CGYGPKKKRKVGG (SEQ ID NO:5)), a mutated version of the SV40 T antigen NLS (muT=VKKGKCRPGKGYG (SEQ ID NO:2)), poly-L-lysine (MW 1, 4, and 30-70 kDa), histone H1, and hydrophilic amine-terminated dendrimers (87,340 MW) of small size (8.4 nm) available through Polysciences, Inc. (Warrington, Pa.). These scaffolds are tested for DNA condensation using a fluorescence quench assay of ethidium bromide labeled plasmid. Synthetic peptides with a C-terminus Gly-Gly-Gly-Cys-COOH (SEQ ID NO:19) linked to M9 or KNS are grafted at 1:1 to 3:1 to the activated amine-rich scaffolds. The crosslinker succinimidyl 4-(N-maleimidomethyl)cyclohexane-1 (SMCC, Pierce) is added at a final concentration of 10 mM (at 10% DMSO) to 100 μg amine rich scaffold (pH 7.2, 25 ? C for 2 hours) to react the SMCC NHS-ester to the primary amine of the scaffold. Excess SMCC and DMSO are removed by sephadex G-15 chromatography. The activated scaffold is conjugated with equimolar or 2 to 3-fold excess of the KNS or M9 peptide at 4 μC (16 hours) by maleimide reaction with the SH moiety of the C-terminal cysteine. Individual reaction species are isolated by electroelution or FLPC. […]

For “CGYGPKKKRKVGG [SV40 T-antigen consensus NLS, reference compound]”, in the experiment on confluent BAEC [1], the “enhancement of β-galactosidase expression / gene transfer” value was “A similar level of increase”. In the case of polylysine [reference compound], in the experiment with confluent BAEC [1], the “enhancement of β-galactosidase expression / gene transfer” value is “A similar level of increase”. Turning to “NQSSNFGPMKGGNFGGRSSGPYGGGGQYFAKPRNQGGY-GGGC (NQSSNFGPMKGGNFGGRSSGPYGGGGQYFAKPRNQGGYGGGC; C-terminal GGGC extension) [M9 peptide]”, in the experiment with confluent BAEC [1], the “increase in total β-galactosidase expression over transfection with plasmid alone” value amounted to 18.3 fold. In the experiment on confluent BAEC [2], the “percent transfection: percent of cells with fluorescence ≧100 f.u.” value is recorded as 55%. Regarding VKKGKCRPGKGYG [ScT], in the experiment with confluent BAEC [1], the “enhancement of β-galactosidase expression / gene transfer” value is on record as “little benefit” and the “increase in total β-galactosidase expression over transfection with plasmid alone” value is 4 fold. The “plasmid condensation” value in the experiment with plasmid is “condenses plasmid effectively”.

Source of the values: US7662629B2, “Peptide scaffolds for transfer of molecules into eukaryotic cells” (Trustees of the University of Pennsylvania, priority 1998, dated 2010).
